{
  "source": "patent EP1126030A1",
  "about": "“THIOREDOXIN REDUCTASE II” (priority 1998, dated 2000)",
  "target": "T1, flag-tag fused TxRIIα protein (Homo sapiens, UniProt Q9NNW7)",
  "T1 construct": "made in house",
  "T1 sequence (Q9NNW7 37-524)": "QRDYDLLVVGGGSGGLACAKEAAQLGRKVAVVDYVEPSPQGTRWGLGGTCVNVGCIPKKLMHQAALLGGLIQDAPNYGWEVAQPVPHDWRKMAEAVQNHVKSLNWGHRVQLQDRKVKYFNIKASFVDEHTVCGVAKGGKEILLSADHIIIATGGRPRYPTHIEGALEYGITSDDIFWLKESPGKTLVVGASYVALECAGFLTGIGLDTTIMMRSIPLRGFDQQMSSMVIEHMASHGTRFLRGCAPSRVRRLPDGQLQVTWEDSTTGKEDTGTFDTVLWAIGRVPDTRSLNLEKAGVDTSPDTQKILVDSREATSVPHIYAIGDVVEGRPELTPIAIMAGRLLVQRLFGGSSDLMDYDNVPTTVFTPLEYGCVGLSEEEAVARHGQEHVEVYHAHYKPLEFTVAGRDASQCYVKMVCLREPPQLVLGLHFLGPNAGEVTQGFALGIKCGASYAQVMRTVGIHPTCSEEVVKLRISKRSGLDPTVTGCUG",
  "test": "Inhibitor assay (DTNB assay of TxR activity)",
  "type": "biochemical",
  "conditions": "diluted series of inhibitor; 1 µM flag-tag fused TxRIIα protein, 1 mM NADPH, 10 mM DTNB, pH 7.2; absorbance at 412 nm at 25°C for 5 min (Figure 5)",
  "protocol": "DTNB assay is a method in which TNB caused by the TxR activity from DTNB is measured by the absorbance of a thiol at 412 nm based on the following reaction formula. The purified tag fused TxRIIα protein (1 to 50 µl) was added to the assay buffer 1 to mess up to 1.0 ml. The absorbance at 412 nm was measured at 25°C for 5 min (Figure 3). DTNB + NADPH + H^+ 2TNB + NADP^+\n100 mM potassium phosphate pH 7.0, 10 mM EDTA, 0.25 mM NADPH, 0.2 mg/ml bovine serum albumin (BSA), 1% ethanol, 1 mM DTNB\nTo compare an enzyme activity of the TxRIIs by the present invention, obtained as a recombinant, and an activity of the natural TxR, an effect of an inhibitor was observed. As an inhibitor for the TxR activity, 1-chloro-2, 4-dinitrobenzene (CDNB) and 13-cis-retinoic acid was used. For confirming the TxR activity, the DTNB assay was used.\nThe diluted series of the inhibitors was prepared with 0.2 ml of HE buffer (100 mM HEPES buffer pH 7.2, 5 mM EDTA) . The tag-fused TxRIIαprotein was prepared at 3 µM and 0.2 ml thereof was added thereto, then 0.2 ml of HE buffer containing 3 mM NADPH and 30 mM DTNB was added thereto. The reaction system of this solution is composed of 100 mM HEPES buffer pH 7.2, 5 mM EDTA, 1 µM flag-tag fused TxRIIα protein, 1 mM NADPH, and 10 mM DTNB. The […] was measured by absorbance of a thiol at 412 nm at 25°C for 5min.",
  "data": [
    {"smiles": "CC1=C(/C=C/C(C)=C/C=C/C(C)=C\\C(=O)O)C(C)(C)CCC1", "note": "[13-cis retinoic acid, 13-cis-retinoic acid]", "values": [
      {"measurement": "inhibition of the TxR activity of the purified flag-tag fused TxRIIα protein", "result": "effectively inhibited"}
    ]},
    {"smiles": "O=[N+]([O-])c1ccc(Cl)c([N+](=O)[O-])c1", "note": "[CDNB, 1-chloro-2,4-dinitrobenzene]", "values": [
      {"measurement": "inhibition of the TxR activity of the purified flag-tag fused TxRIIα protein", "result": "effectively inhibited"}
    ]}
  ]
}
